# Assay results as given in patent US6825348B2, “Antiviral compounds” (Academia Sinica, priority 2002, dated 2004).
# Key:
# [1] = target: PRPP synthetase (UniProt P0A717); experiment: PRPP synthetase reaction, conversion to diphosphates and inhibition of AMP phosphorylation; assay type: biochemical; details: compound as substrate of PRPP synthetase
# Method: Enzymatic Conversion of Acyclic Nucleoside Phosphonates and Nucleotide 5′-Monophosphate Analog to Their Antivirally Active Diphosphates (Triphosphate Equivalents). Substrate affinities of acyclic nucleoside phosphonates 4, 20, 21, and dinucleotide analog 24 for PRPP synthetase as well as their inhibitory effect against the enzyme were evaluated according to the established procedures. See, e.g., Balzarini et al. (1991) J. Biol. Chem. 266: 8686-8689 and references cited therein. The assays were then terminated after 4 h by the addition of MeOH. HPLC on an anion-exchange Partisphere column was used to analyze the formation of […] 21pp, PMEApp, 4pp, 20pp, and 24pp.
# [2] = system: human cytomegalovirus (AD-169); experiment: Inhibition of HCMV cytopathogenicity in Vero cell culture; assay type: cell-based; details: Vero cell culture; 50% inhibition of cytopathogenicity; for 1:1 mixtures IC50 refers to known antiviral drugs
# [3] = system: herpes simplex type 2 virus (HSV-2) (G); experiment: Inhibition of HSV-2 cytopathogenicity in Vero cell culture; assay type: cell-based; details: 50% inhibition of cytopathogenicity, for 1:1 mixtures IC50 refers to known antiviral drugs
# [4] = system: thymidine kinase-deficient (TK−) varicella-zoster virus (YS/R); experiment: microbe, parasite or virus in culture; assay type: cell-based; details: Vero cell culture; 50% inhibition of cytopathogenicity; for 1:1 mixtures IC50 refers to known antiviral drugs
# [5] = system: herpes simplex type 1 virus (HSV-1) (KOS); experiment: Inhibition of HSV-1 cytopathogenicity in Vero cell culture; assay type: cell-based; details: Vero cell culture; 50% inhibition of virus-induced cytopathogenicity; mean of duplicates; for 1:1 (W/W) mixtures IC50 refers to known antiviral drugs
# [6] = system: Vero cells
# [7] = system: thymidine kinase-positive (TK+) varicella-zoster virus (YS); experiment: Inhibition of TK+ VZV cytopathogenicity in Vero cell culture; assay type: cell-based; details: Vero cell culture; 50% inhibition of cytopathogenicity; for 1:1 mixtures IC50 refers to known antiviral drugs
# [8] = system: HeLa cells
Structure (SMILES),Km [1] [µM],IC50 HCMV (AD-169) [2] [µg/mL],IC50 HSV-2 (G) [3] [µg/mL],IC50 TK−VZV (YS/R) [4] [µg/mL],IC50 HSV-1 (KOS) [5] [µg/mL],"Vero cell, concentration causing microscopically visible change or disruption in about 50% of the cell sheet [6] [µg/mL]",IC50 TK+VZV (YS) [7] [µg/mL],"HeLa cell, concentration causing microscopically visible change or disruption in about 50% of the cell sheet [8] [µg/mL]"
"Nc1ncnc2c1ncn2[C@@H]1O[C@H](COP(=O)(O)O)[C@@H](O)[C@H]1O [AMP 21, adenosine 5′-monophosphate, reference compound]",240,,,,,,,
"Nc1nc2ncn(COCCCl)c2c(=O)[nH]1 [Compound 7, 7-[(2-Chloroethoxy)methy]guanine]",,>128,>128,>128,>128,145,>128,157
"Nc1ncnc2ncn(COCCCl)c12 [Compound 12, 7-[(2-Chloroethoxy)methy]adenine]",,>128,>128,>128,>128,165,>128,169
